Experiment [1] concerns the target T1, PI3Kα H1047R in T47D cells (Homo sapiens, UniProt P42336, H1047R).
T1 construct: endogenous in cells; host or cells: T47D
Nature of the experiment: PI3Kα cellular assay: T47D pAKT S473 HTRF. Format: cell-based. Particulars: for T47D pAKT S473 HTRF IC50 (H1047R): T47D (H1047R) selectivity over SKBR3 (WT): T47D (H1047R) versus SKBR3 (WT) cells; for pIC50: T47D cells (H1047R), serum starved, 1 hr compound, 20 ng/ml EGF 10 min. As for the experimental part: PI3Kα cellular assay experimental procedure: SKBR3 or T47D cells are seeded in DMEM containing 10% FBS at 25 k cells/well into 96-well cell culture format. Cells are incubated overnight at 37° C. in a 5% CO2 incubator and the following day cell media is aspirated, adherent cells are washed 1× with room temperature PBS prior to serum-free media application. Cells are returned to 37° C. 5% CO2 incubator and incubated a further 16 hrs. Compounds are added to serum starved adherent cells with a top dose of 10,000 nM and 3× multiple dose reductions for a minimum dose of 0.5 nM diluted in DMSO. Cell/compound incubation continues for 1 hr in a 37° C., 5% CO2 incubator prior to 10 minute PIK3CA stimulation with 20 ng/ml EGF. Cells treated with 0.1% DMSO and 20 ng/mL EGF are employed as negative control, cells treated with 10 uM Alpelisib and 20 ng/mL EGF are employed as a positive control. After 10 mins, plates are removed from incubator and cells are lysed with buffer and shaking 45 minutes. 20 μL of lysate is transferred to an opti-384 plate and 2.5 μl of Phospho-AKT d2 antibody with 2.5 μl of Phospho-AKT Eu Cryptate solution in the detection buffer are added to each well. 384 well plate is left overnight at room temperature before reading HTRF on an Envision plate reader.
In general terms: Time-resolved FRET reads energy transfer from a long-lived donor to a nearby acceptor.

The target in a further experiment is PI3K H1047R (Homo sapiens, UniProt P42336, H1047R). The experiment can be described thus: PI3K H1047R ADP-Glo (PI/PS). Format: biochemical. Particulars: PI/PS substrate. A general note: ADP-Glo turns the ADP formed in a reaction into a luminescent signal.

pIC50: −log10 of the molar value.

Here are results for 16 compounds from patent publication US20260130925A1, “METHODS FOR TREATING CANCER” (Genesis Molecular AI, Inc., priority 2022, published 2026).

One may read the pIC50 as the negative decadic logarithm of the IC50, by convention in mol/L. Lower therefore signals a high IC50.

T1 sequence (P42336 whole entry H1047R): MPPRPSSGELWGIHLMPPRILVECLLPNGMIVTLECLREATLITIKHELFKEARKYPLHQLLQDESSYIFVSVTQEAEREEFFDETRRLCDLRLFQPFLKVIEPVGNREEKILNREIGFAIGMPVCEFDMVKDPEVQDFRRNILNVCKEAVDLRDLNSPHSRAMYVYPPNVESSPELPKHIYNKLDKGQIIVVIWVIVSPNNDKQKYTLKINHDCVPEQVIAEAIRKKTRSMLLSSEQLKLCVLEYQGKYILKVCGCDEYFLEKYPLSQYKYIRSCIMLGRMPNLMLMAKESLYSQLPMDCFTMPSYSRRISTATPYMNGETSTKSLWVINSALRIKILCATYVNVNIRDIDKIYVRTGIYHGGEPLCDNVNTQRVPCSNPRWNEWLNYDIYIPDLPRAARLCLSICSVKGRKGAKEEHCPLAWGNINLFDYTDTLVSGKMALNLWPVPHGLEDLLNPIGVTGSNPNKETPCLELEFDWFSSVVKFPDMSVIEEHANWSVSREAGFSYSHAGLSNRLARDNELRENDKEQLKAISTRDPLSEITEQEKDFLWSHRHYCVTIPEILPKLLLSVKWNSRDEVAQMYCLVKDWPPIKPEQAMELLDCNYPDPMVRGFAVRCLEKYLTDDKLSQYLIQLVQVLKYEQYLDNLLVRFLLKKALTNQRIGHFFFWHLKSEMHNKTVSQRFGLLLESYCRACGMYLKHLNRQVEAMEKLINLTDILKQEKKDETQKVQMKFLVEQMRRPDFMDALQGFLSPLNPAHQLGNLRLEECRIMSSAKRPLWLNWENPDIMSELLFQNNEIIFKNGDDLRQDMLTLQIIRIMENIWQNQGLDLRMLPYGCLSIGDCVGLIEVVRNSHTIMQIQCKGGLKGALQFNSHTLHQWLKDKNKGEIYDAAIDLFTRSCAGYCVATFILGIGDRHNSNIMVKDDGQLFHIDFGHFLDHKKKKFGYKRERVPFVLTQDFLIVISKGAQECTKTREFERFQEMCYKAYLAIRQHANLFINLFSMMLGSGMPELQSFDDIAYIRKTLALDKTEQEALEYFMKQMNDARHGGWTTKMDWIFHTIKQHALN
T1 sequence (P27986 whole entry partner): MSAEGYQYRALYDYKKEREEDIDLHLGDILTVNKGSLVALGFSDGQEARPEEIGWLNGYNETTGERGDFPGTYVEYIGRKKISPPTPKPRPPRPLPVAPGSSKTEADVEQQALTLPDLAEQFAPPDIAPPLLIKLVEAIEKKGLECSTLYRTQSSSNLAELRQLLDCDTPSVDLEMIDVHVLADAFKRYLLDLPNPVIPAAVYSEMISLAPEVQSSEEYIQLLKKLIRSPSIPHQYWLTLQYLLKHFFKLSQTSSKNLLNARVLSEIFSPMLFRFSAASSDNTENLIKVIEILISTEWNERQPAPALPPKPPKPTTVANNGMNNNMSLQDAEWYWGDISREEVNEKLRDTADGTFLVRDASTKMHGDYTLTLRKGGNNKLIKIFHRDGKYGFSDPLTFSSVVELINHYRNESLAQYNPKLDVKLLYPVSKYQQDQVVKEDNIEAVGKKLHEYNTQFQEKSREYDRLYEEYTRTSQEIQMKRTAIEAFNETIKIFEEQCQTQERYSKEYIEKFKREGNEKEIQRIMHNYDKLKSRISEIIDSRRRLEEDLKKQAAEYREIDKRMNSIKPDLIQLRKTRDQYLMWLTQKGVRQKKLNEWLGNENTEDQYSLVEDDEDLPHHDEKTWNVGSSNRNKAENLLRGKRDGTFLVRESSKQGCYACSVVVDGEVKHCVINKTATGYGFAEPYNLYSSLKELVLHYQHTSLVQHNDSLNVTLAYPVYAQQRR
PI3K H1047R, sequence (P42336 whole entry H1047R): as the sequence (P42336 whole entry H1047R) above
PI3K H1047R, sequence (P27986 whole entry partner): as the sequence (P27986 whole entry partner) above

Take `Cc1cc([C@@H](C)Nc2ccccc2C(=O)O)c2nc(-c3ccc4c(c3)c(C)cn4C)n(C)c(=O)c2c1` [Compound 134]: in experiment [1], the “T47D pAKT S473 HTRF IC50 (H1047R): T47D (H1047R) selectivity over SKBR3 (WT)” value is “A (A denotes >20-fold)” and the pIC50 is over 6.12.

Turning to `Cc1cc([C@H](C)Nc2ccccc2C(=O)O)c2nc(N3CCC(C)(C)CC3)nc(C#N)c2c1` [Compound 60], the “T47D pAKT S473 HTRF IC50 (H1047R): T47D (H1047R) selectivity over SKBR3 (WT)” value in experiment [1] was “C (C denotes ≤5-fold)”. Further, the pIC50 in experiment [1] is at most 5.70; on PI3K H1047R, at most 5.00.

With `Cc1cc(C(C)Nc2ccccc2C(=O)O)c2nc(N3CCC(C)(C)CC3)nc(C#N)c2c1` (stereo not drawn) [Compound 61], in experiment [1], the “T47D pAKT S473 HTRF IC50 (H1047R): T47D (H1047R) selectivity over SKBR3 (WT)” value is “A (A denotes >20-fold)” and the pIC50 was over 6.12.

`Cc1cc([C@H](C)Nc2ccccc2C(=O)O)c2[nH]c(N3CCOCC3)nc(=O)c2c1` [Compound 17]: in experiment [1], the “T47D pAKT S473 HTRF IC50 (H1047R): T47D (H1047R) selectivity over SKBR3 (WT)” value was “B (B denotes 20-fold≥value>5-fold)” and the pIC50 is over 6.12.

For the compound `Cc1cc(C(C)Nc2ccccc2C(N)=O)c2nc(-c3cccnc3)n(C)c(=O)c2c1` (stereo not drawn) [Compound 139], in experiment [1], the “T47D pAKT S473 HTRF IC50 (H1047R): T47D (H1047R) selectivity over SKBR3 (WT)” value is reported as “B (B denotes 20-fold≥value>5-fold)” and the pIC50 was 5.70 to 6.12.

Regarding `Cc1cc([C@@H](C)Nc2ccccc2C(=O)O)c2cc(-c3ccnc(C4CC4)c3)ncc2c1` [Compound 89], in experiment [1], the “T47D pAKT S473 HTRF IC50 (H1047R): T47D (H1047R) selectivity over SKBR3 (WT)” value is on record as “A (A denotes >20-fold)” and the pIC50 is over 6.12.

For the compound `Cc1cc([C@@H](C)Nc2ccccc2C(=O)O)c2nc(N3CCC(C)(C)CC3)nc(O)c2c1` [Compound 12], in experiment [1], the “T47D pAKT S473 HTRF IC50 (H1047R): T47D (H1047R) selectivity over SKBR3 (WT)” value is “C (C denotes ≤5-fold)” and the pIC50 was at most 5.70.

As to `Cc1cc(C(C)Nc2ccccc2C(=O)O)c2nc(N3Cc4ccccc4C3)nc(NC3CC3O)c2c1` (stereo not drawn) [Compound 65], in experiment [1], the “T47D pAKT S473 HTRF IC50 (H1047R): T47D (H1047R) selectivity over SKBR3 (WT)” value is given as “B (B denotes 20-fold≥value>5-fold)” and the pIC50 is 5.70 to 6.12.

`Cc1cc([C@H](C)Nc2ccccc2C(=O)O)c2nc(N3Cc4ccccc4C3)ncc2c1` [Compound 36]: in experiment [1], the “T47D pAKT S473 HTRF IC50 (H1047R): T47D (H1047R) selectivity over SKBR3 (WT)” value is “B (B denotes 20-fold≥value>5-fold)” and the pIC50 is 5.70 to 6.12.

For the compound `Cc1cc(C(C)Nc2ccccc2C(=O)O)c2cc(C3CCCOC3)ncc2c1` (stereo not drawn) [Compound 131], in experiment [1], the “T47D pAKT S473 HTRF IC50 (H1047R): T47D (H1047R) selectivity over SKBR3 (WT)” value is reported as “A (A denotes >20-fold)” and the pIC50 was over 6.12.

Consider `Cc1cc([C@H](C)Nc2ccccc2C(=O)O)c2nc(N3CCC(C)(C)CC3)ncc2c1` [Compound 7], for which, in experiment [1], the “T47D pAKT S473 HTRF IC50 (H1047R): T47D (H1047R) selectivity over SKBR3 (WT)” value is recorded as “C (C denotes ≤5-fold)” and the pIC50 is at most 5.70.

On to `Cc1cc(C(C)Nc2ccccc2C(=O)O)c2cc(OCc3ccccc3)nc(C(N)=O)c2c1` (stereo not drawn) [Compound 128], for which, in experiment [1], the “T47D pAKT S473 HTRF IC50 (H1047R): T47D (H1047R) selectivity over SKBR3 (WT)” value is “A (A denotes >20-fold)” and the pIC50 is over 6.12.

As to `Cc1cc(C(C)Nc2ccccc2C(=O)O)c2cc(-c3ccc4c(c3)c(C)nn4C)n(C)c(=O)c2c1` (stereo not drawn) [Compound 87], in experiment [1], the “T47D pAKT S473 HTRF IC50 (H1047R): T47D (H1047R) selectivity over SKBR3 (WT)” value is recorded as “A (A denotes >20-fold)” and the pIC50 was over 6.12.

Turning to `Cc1cc(C(C)Nc2ccccc2C(=O)O)c2cc(N3Cc4ccccc4C3)nc(C#N)c2c1` (stereo not drawn) [Compound 46], in experiment [1], the “T47D pAKT S473 HTRF IC50 (H1047R): T47D (H1047R) selectivity over SKBR3 (WT)” value was “C (C denotes ≤5-fold)” and the pIC50 was at most 5.70.

In the case of `Cc1cc(C(C)Nc2ccccc2C(=O)O)c2nc(N3Cc4ccccc4C3)nc(NC3COC3)c2c1` (stereo not drawn) [Compound 71], in experiment [1], the “T47D pAKT S473 HTRF IC50 (H1047R): T47D (H1047R) selectivity over SKBR3 (WT)” value was “C (C denotes ≤5-fold)” and the negative logarithm of the IC50 (pIC50) was at most 5.70.

Consider `Cc1cc([C@@H](C)Nc2ccccc2C(=O)O)c2cc(OC3CCOCC3)ncc2c1` [Compound 132], for which, in experiment [1], the “T47D pAKT S473 HTRF IC50 (H1047R): T47D (H1047R) selectivity over SKBR3 (WT)” value was “A (A denotes >20-fold)” and the pIC50 is over 6.12.
